{"source": "patent US20210355501A1", "about": "“INTERLEUKIN-8 FOR MAINTENANCE OF HUMAN ACUTE MYELOID LEUKEMIA AND MYELODYSPLASTIC SYNDROME AND USES THEREOF” (Albert Einstein College of Medicine, priority 2018, published 2021)", "key": {"IL8": {"test_system": "IL8", "assay": "serum IL8 levels by ELISA in patients", "format": "in vivo, human", "details": "3 patients", "source_text": "FIG. 1A-1C. IL8 is detectable in MDS/AML serum and correlated with disease severity. ELISA for IL8 was done on controls and MDS and AML patient serum samples. […] IL8 levels were increased after transformation of low risk MDS to higher risk MDS/AML (B) and decreased after treatment with 5-Azacytidine (C).\nIt was previously shown that IL8 mRNA is overexpressed in MDS and AML cells. It was now determined whether IL8 can be detected in serum of patients with MDS and AML. A total of 33 patients (MDS low risk (21), MDS high risk (6) and AML (6)) and 30 controls sera were collected and analyzed for IL8 levels by ELISA. […] Furthermore, IL8 levels went up in 3 patients that transformed from low risk MDS to higher risk MDS or AML (FIG. 1B). Additionally, IL8 levels dropped after treatment in another 3 patients that were treated with 5-Azacytidine (FIG. 1C)."}, "CXCR2": {"target": "T1, CXCR2 (Homo sapiens, UniProt P25025)", "T1 sequence (P25025 1-360)": "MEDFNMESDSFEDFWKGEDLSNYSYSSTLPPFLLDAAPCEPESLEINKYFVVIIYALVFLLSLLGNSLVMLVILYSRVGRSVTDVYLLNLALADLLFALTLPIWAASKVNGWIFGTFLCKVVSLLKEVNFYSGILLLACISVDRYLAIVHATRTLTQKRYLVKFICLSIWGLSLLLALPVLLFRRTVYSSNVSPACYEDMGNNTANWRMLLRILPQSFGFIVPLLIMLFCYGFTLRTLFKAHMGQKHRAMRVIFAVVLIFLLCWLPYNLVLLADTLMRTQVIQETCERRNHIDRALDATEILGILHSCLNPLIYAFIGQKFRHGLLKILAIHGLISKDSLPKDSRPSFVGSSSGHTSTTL", "details": "cited from earlier work"}, "AML cell lines": {"test_system": "AML cell lines", "details": "all AML cell lines; cited from earlier work"}, "[1]": {"test_system": "healthy control CD34+ cells", "details": "cited from earlier work"}, "[2]": {"test_system": "primary samples from AML and high risk MDS cases", "details": "cited from earlier work"}, "[3]": {"test_system": "primary AML patient cells", "assay": "AML cell engraftment in NSG mice pre-transplanted with doxycycline-induced hIL-8-transgenic bone marrow cells", "format": "in vivo, mouse", "details": "4 months post-transplantation; for increase of AML cell engraftment vs uninduced control: p=0.0106, N=8", "source_text": "FIG. 3. Xenotransplantation of primary AML cells into NSG mice pre-transplanted with hIL8-transgenic and doxycycline-induced congenic bone marrow cells leads to a more than 10-fold increase (p=0.0106, N=8) of AML cell engraftment.\nWe have generated a new transgenic mouse model in which we inserted a doxycycline-inducible human IL-8 transgene into the immunocompromised NSG mouse strain. We then performed congenic transplantation of hIL-8-transgenic bone marrow cells into 8 parental NSG mice, followed by doxycycline-triggered induction of hIL-8 in 4 of the recipient mice. 4 uninduced mice served as a control. We then xenotransplanted 5×10^6 leukemic cells from an AML patient into these animals and determined AML cell engraftment in the bone marrow 4 months post-transplantation. […] We have now a novel transgenic mouse system available that permits for the first time the generation of robust primary xenografts and PDX models from AML and MDS patients' cells, which can be used for drug development and testing purposes as well as functional/mechanistic studies."}, "[4]": {"test_system": "patient-derived xenografts from MDS/AML", "assay": "engraftment of patient-derived MDS/AML xenografts in NSG mice given exogenous recombinant human IL8", "format": "in vivo, mouse", "details": "for engraftment of primary MDS and AML patients' cells: 3 patient derived xenografts (1 AML, 2 MDS)", "source_text": "FIG. 2A-2E. Efficacy of human IL8 addition in patient-derived xenografts from MDS/AML. […] Averaged data in (C); data from individual subjects in (D). The improvement in engraftment is sustained (as shown for representative PDX) (E)."}}, "note": "“Also recorded” adds a separate entry of the source."}
{"molecule": "Nc1ncn([C@@H]2O[C@H](CO)[C@@H](O)[C@H]2O)c(=O)n1", "note": "[5-Azacytidine]", "values": [{"measurement": "IL8 levels in serum after treatment", "setting": "IL8", "value": "decreased; also recorded: dropped"}]}
{"molecule": "NS(=O)(=O)c1c(Cl)ccc(NC(=O)Nc2cccc(Cl)c2Cl)c1O", "note": "[SB332235]", "values": [{"measurement": "selectivity for CXCR2 over CXCR1", "setting": "CXCR2", "value": 100, "unit": "fold"}, {"measurement": "proliferation", "setting": "AML cell lines", "value": "dose dependent decrease in proliferation"}, {"measurement": "growth of healthy control CD34+ cells", "setting": "[1]", "value": "only minimally affecting growth"}, {"measurement": "proliferation in primary samples", "setting": "[2]", "value": "significant inhibition of proliferation"}]}
{"molecule": "hIL-8: human IL-8 expressed from doxycycline-inducible transgene in transplanted bone marrow cells of NSG mice", "values": [{"measurement": "AML cell engraftment in the bone marrow (average)", "setting": "[3]; doxycycline-induced hIL-8, 5×10^6 leukemic cells", "value": 42.2, "unit": "%"}, {"measurement": "increase of AML cell engraftment vs uninduced control", "setting": "[3]", "value": 10.4, "unit": "fold"}, {"measurement": "increase of AML cell engraftment vs uninduced control", "setting": "[3]; listed as hIL8", "value": "more than 10 fold"}]}
{"molecule": "rhIL8: exogenous recombinant human IL8 injected into xenotransplant recipient mice", "values": [{"measurement": "engraftment of primary MDS and AML patients' cells", "setting": "[4]", "value": "increased engraftment"}, {"measurement": "engraftment of primary MDS and AML patients' cells", "setting": "[4]; listed as IL8", "value": "highly significant increase"}, {"measurement": "engraftment from AML sample", "setting": "[4]; NSG mice, after 3 weeks of treatment, vs vehicle controls", "value": "higher engraftment"}]}
